Laboratory results: US8653100B2 (AbbVie Inc., priority 2008, dated 2014)
Counter-ions that a name gives are not always drawn.

What was measured:
human GlyT1c = human GlyT1c (Homo sapiens (Human), UniProt P48067); test: [3H]-Glycine uptake into recombinant CHO cells expressing human GlyT1; type: cell-based; conditions: hGlyT1c_5_CHO cells, 200 nM [3H]-glycine
Description: [^3H]-Glycine uptake into recombinant CHO cells expressing human GlyT1: Human GlyT1c expressing recombinant hGlyT1c—5_CHO cells were plated at 20,000 cells per well in 96 well Cytostar-T scintillation microplates (Amersham Biosciences) and cultured to sub-confluency for 24 h. […] The plates were placed in a Wallac Microbeta (PerkinElmer) and continuously counted by solid phase scintillation spectrometry during up to 3 hours. […] IC50 calculations were made by four-parametric logistic nonlinear regression analysis (GraphPad Prism) using determinations within the range of linear increase of [^3H]-glycine incorporation between 60 and 120 min.

human GlyT1c transporter = human GlyT1c transporter (Homo sapiens (Human), UniProt P48067); test: Radioligand binding assay using recombinant CHO cell membranes expressing human GlyT1; conditions: examples 88-204, radioligand not specified by footnote, read-out: radioligand binding Kiapp
Summary of the method: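 Competition binding of [^3H]-(R)-NPTS (0.5 nM) to CHO membranes expressing human GlyT1c (50 μg/ml protein) in pH 7.5 Hepes/NaCl buffer with 1% DMSO, 1 h at room temperature. Non-specific binding defined with 10 μM Org24598; filtration and scintillation counting, one-site fit, Ki via Cheng-Prusoff.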

Chain of human GlyT1c (P48067 whole entry): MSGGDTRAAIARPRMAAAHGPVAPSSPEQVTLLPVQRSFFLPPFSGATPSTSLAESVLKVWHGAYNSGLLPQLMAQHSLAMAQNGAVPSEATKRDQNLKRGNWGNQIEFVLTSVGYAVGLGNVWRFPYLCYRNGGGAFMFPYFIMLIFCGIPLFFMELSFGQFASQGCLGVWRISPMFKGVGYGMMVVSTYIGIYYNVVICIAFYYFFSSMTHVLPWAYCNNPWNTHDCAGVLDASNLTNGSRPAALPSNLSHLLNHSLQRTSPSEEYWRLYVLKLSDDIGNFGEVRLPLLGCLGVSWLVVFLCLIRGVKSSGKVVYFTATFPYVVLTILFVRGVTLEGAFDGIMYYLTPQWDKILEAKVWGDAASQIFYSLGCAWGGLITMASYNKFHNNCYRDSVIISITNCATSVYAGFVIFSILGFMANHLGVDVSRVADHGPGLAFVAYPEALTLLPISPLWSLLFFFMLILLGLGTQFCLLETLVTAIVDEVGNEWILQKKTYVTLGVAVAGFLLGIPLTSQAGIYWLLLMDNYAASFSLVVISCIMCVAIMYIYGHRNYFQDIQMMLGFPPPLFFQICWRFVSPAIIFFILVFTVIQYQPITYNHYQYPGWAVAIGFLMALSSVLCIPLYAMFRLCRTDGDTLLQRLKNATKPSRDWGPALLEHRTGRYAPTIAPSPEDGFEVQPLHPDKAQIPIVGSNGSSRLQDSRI
Chain of human GlyT1c transporter (P48067 whole entry): as above

| IC50 (human GlyT1c) | Ki (human GlyT1c transporter) | SMILES |
| --- | --- | --- |
| ≤ 1000 nM | – | NCCS(=O)(=O)NCCOc1ccc2c(c1)C(C1(c3ccc(Cl)cc3)CCC1)NCC2 (stereo not shown) [Example 154, 2-Amino-N-[2-({1-[1-(4-chlorophenyl)cyclobutyl]-1,2,3,4-tetrahydroisoquinolin-7-yl}oxy)ethyl]ethanesulfonamide] |
| ≤ 10000 nM | – | CCCS(=O)(=O)N1CCN(S(=O)(=O)NCCOc2ccc3c(c2)C(C2(c4ccc(Cl)cc4)CCC2)NCC3)CC1 (stereo not shown) [Example 56, N-(2-(1-(1-(4-Chlorophenyl)cyclobutyl)-1,2,3,4-tetrahydroisoquinolin-7-yloxy)ethyl)-4-(propylsulfonyl)piperazine-1-sulfonamide hydrochloride] |
| ≤ 1000 nM | – | CCCS(=O)(=O)NCCOc1ccc2c(c1)C(C1(c3ccc(F)cc3)CCC1)N(c1ncc[nH]1)CC2 (stereo not shown) [Example 79, N-[2-({1-[1-(4-Fluorophenyl)cyclobutyl]-2-(1H-imidazol-2-yl)-1,2,3,4-tetrahydroisoquinolin-7-yl}oxy)ethyl]propane-1-sulfonamide] |
| ≤ 10000 nM | – | CC(=O)NCCOc1ccc2c(c1)C(C1(c3ccc(Cl)cc3)CCC1)NCC2 (stereo not shown) [Example 6, N-(2-{1-[1-(4-Chloro-phenyl)-cyclobutyl]-1,2,3,4-tetrahydro-isoquinolin-7-yloxy}-ethyl)-acetamide] |
| ≤ 100000 nM | – | CC(C)NC(=O)NCCOc1ccc2c(c1)C(C1(c3ccc(Cl)cc3)CCC1)NCC2 (stereo not shown) [Example 36, 1-(2-{1-[1-(4-Chloro-phenyl)-cyclobutyl]-1,2,3,4-tetrahydro-isoquinolin-7-yloxy}-ethyl)-3-isopropyl-urea hydrochloride] |
| ≤ 10000 nM | – | CCCS(=O)(=O)NCCOc1ccc2c(c1)C(C1(c3ccc(Cl)cc3)CCC1)N(C(=N)N)CC2 (stereo not shown) [Example 47, 1-[1-(4-Chloro-phenyl)-cyclobutyl]-7-[2-(propane-1-sulfonylamino)-ethoxy]-3,4-dihydro-1H-isoquinoline-2-carboxamidine] |
| ≤ 100000 nM | – | CCCS(=O)(=O)NCCOc1ccc2c(c1)C(C1(c3ccc(F)cc3)CCC1)N(C(=O)C(F)(F)F)CC2 (stereo not shown) [Example 70, N-[2-({1-[1-(4-Fluorophenyl)cyclobutyl]-2-(trifluoroacetyl)-1,1,3,4-tetrahydroisoquinolin-7-yl}oxy)ethyl]propane-1-sulfonamide] |
| ≤ 1000 nM | – | CCCS(=O)(=O)NCCOc1ccc2c(c1)C(C1(c3ccc(F)cc3)CCC1)N(CC(F)(F)F)CC2 (stereo not shown) [Example 71, N-[2-({1-[1-(4-Fluorophenyl)cyclobutyl]-2-(2,2,2-trifluoroethyl)-1,2,3,4-tetrahydroisoquinolin-7-yl}oxy)ethyl]propane-1-sulfonamide hydrochloride] |
| ≤ 100 nM | – | CCCS(=O)(=O)NCCOc1ccc2c(c1)C(C1(c3cccc(Cl)c3)CCC1)NCC2 (stereo not shown) [Example 49, Propane-1-sulfonic acid (2-{1-[1-(3-chloro-phenyl)-cyclobutyl]-1,2,3,4-tetrahydroisoquinolin-7-yloxy}-ethyl)-amide] |
| – | ≤ 1000 nM | Cn1cnc(S(=O)(=O)NCC(=O)Nc2ccc3c(c2)C(C2(c4ccc(Cl)cc4)CCC2)NCC3)c1 (stereo not shown) [Example 111, N-{1-[1-(4-Chlorophenyl)cyclobutyl]-1,2,3,4-tetrahydroisoquinolin-7-yl}-N˜2˜-[(1-methyl-1H-imidazol-4-yl)sulfonyl]glycinamide dihydrochloride] |
| – | ≤ 100 nM | Nc1ncc(S(=O)(=O)NCCOc2ccc3c(c2)C(C2(c4ccc(Cl)cc4)CCC2)NCC3)cn1 (stereo not shown) [Example 150, 2-Amino-N-[2-({1-[1-(4-chlorophenyl)cyclobutyl]-1,2,3,4-tetrahydroisoquinolin-7-yl}oxy)ethyl]pyrimidine-5-sulfonamide] |

| SMILES | IC50 (human GlyT1c) | Ki (human GlyT1c transporter) |
| --- | --- | --- |
| CCCS(=O)(=O)NCCOc1ccc2c(c1)C(C(c1ccc(Cl)cc1)C(C)C)NCC2 (stereo not shown) [Example 60, dihydrochloride] | ≤ 10000 nM | – |
| CC(C)S(=O)(=O)NCCOc1ccc2c(c1)C(C1(c3ccc(Cl)cc3)CCC1)NCC2 (stereo not shown) [Example 38, Propane-2-sulfonic acid (2-{1-[1-(4-chloro-phenyl)-cyclobutyl]-1,2,3,4-tetrahydro-isoquinolin-7-yloxy}-ethyl)-amide hydrochloride] | ≤ 100 nM | – |
